Values quoted from earlier work, collected in paper PMC12642135 (Food and Waterborne Parasitology, 2025).
“Also recorded” adds a separate entry of the source.

System: Toxoplasma gondii
Set-up: method as in Kul et al., 2013
Settings: lambs, applied from the second week pi (day 14 pi) onwards; ref Kul et al., 2013

Structure (SMILES): Cc1cc(-n2c(=O)[nH]c(=O)n(C)c2=O)ccc1Oc1ccc(SC(F)(F)F)cc1 [toltrazuril]
- Reduction of tissue cysts: mildly reduced; also recorded: partial reduction
